Patent publication US20250388593A1 (MITSUBISHI TANABE PHARMA CORPORATION, priority 2023, published 2025)

biological target: CRBN truncate (318-426) (Homo sapiens (Human), UniProt Q96SW2); assay: Measurement of molecular interactions using surface plasmon resonance (SPR), Biacore T200; type: binding; conditions: 25° C., immobilized CRBN truncate, upper limit of measurement 200 μM
Method in brief: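 Compound injections used 60 s association and 120 s dissociation in HEPES pH 7.5 buffer (150 mM NaCl, 1 mM TCEP, 0.005% Tween 20, 2% DMSO). The ligand was CRBN truncate 318-426 bearing a C-terminal Avi-tag, immobilised via streptavidin on an SA sensor chip.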

CRBN truncate (318-426), sequence (Q96SW2 318-426): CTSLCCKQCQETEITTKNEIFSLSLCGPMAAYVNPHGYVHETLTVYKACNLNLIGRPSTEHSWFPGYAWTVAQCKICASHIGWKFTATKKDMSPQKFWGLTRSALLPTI

Kd [µM]	Structure (SMILES)
≥ 100	CC(C)(C)OC(=O)c1ccc(C2(F)CCCC(=O)NC2=O)cc1 (centres unmarked) [Example 243, tert-Butyl 4-(3-fluoro-2,7-dioxoazepan-3-yl) benzoate]
≥ 100	CC(=O)Nc1cccc(C2(F)CCCC(=O)NC2=O)c1 (centres unmarked) [Example 245, N-[3-(3-Fluoro-2,7-dioxoazepan-3-yl)phenyl]acetamide]
50 to 100	O=C1CCCC(n2nc(-c3ccccc3)ccc2=O)C(=O)N1 (centres unmarked) [Example 246, 3-(6-Oxo-3-phenylpyridazin-1-yl) azepane-2,7-dione]
≥ 100	O=C1CCCC(n2ncc(-c3ccccc3)cc2=O)C(=O)N1 (centres unmarked) [Example 247, 3-(6-oxo-4-phenylpyridazin-1-yl)azepane-2,7-dione]
≥ 100	O=C1CCCC(n2ncc(Cl)cc2=O)C(=O)N1 (centres unmarked) [Example 248, 3-(4-Chloro-6-oxopyridazin-1-yl)azepane-2,7-dione]
≥ 100	O=C1CCCC(n2nnc3ccccc32)C(=O)N1 (centres unmarked) [Example 250, 3-(Benzotriazol-1-yl)azepine 2,7-dione]
≥ 100	COc1ccc2nn(C3CCCC(=O)NC3=O)nc2c1 (centres unmarked) [Example 251, 3-(5-Methoxybenzotriazol-2-yl)azepane-2,7-dione]
≥ 100	O=C1CCCC(n2nc(Cl)ccc2=O)C(=O)N1 (centres unmarked) [Example 252, 3-(3-Chloro-6-oxopyridazin-1-yl)azepane-2,7-dione]
≥ 100	COc1ccc2c(c1)nnn2C1CCCC(=O)NC1=O (centres unmarked) [Example 253, 3-(5-Methoxybenzotriazol-1-yl)azepane-2,7-dione]
≥ 100	COc1ccc2nnn(C3CCCC(=O)NC3=O)c2c1 (centres unmarked) [Example 254, 3-(6-Methoxybenzotriazol-1-yl)azepane-2,7-dione]
≥ 100	COc1cccc2c1nnn2C1CCCC(=O)NC1=O (centres unmarked) [Example 255, 3-(4-Methoxybenzotriazol-1-yl)azepane-2,7-dione]
≥ 100	COc1cccc2nn(C3CCCC(=O)NC3=O)nc12 (centres unmarked) [Example 256, 3-(4-Methoxybenzotriazol-2-yl)azepane-2,7-dione]
≥ 100	O=C1CCCC(n2c(=O)ccc3cc(Br)ccc32)C(=O)N1 (centres unmarked) [Example 257, 3-(6-Bromo-2-oxoquinolin-1-yl)azepane-2,7-dione]
≥ 100	COc1cccc2c1ccc(=O)n2C1CCCC(=O)NC1=O (centres unmarked) [Example 258, 3-(5-Methoxy-2-oxoquinolin-1-yl)azepane-2,7-dione]
≥ 100	Cn1c(=O)c(=O)n(C2CCCC(=O)NC2=O)c2ccccc21 (centres unmarked) [Example 259, 1-(2,7-Dioxoazepan-3-yl)-4-methylquinoxaline-2,3-dione]
50 to 100	CC(C)(C)OC(=O)CCc1ccc2c(c1)oc(=O)n2C1CCCC(=O)NC1=O (centres unmarked) [Example 260, tert-Butyl 3-[3-(2,7-dioxoazepan-3-yl)-2-oxo-1,3-benzoxazol-6-yl]propanoate]
50 to 100	Cn1c(=O)n(C2CCCC(=O)NC2=O)c(=O)c2ccc(Br)cc21 (centres unmarked) [Example 261, 7-Bromo-3-(2,7-dioxoazepan-3-yl)-1-methylquinazoline-2,4-dione]
50 to 100	CC(C)(C)OC(=O)CCc1ccc2c(c1)sc(=O)n2C1CCCC(=O)NC1=O (centres unmarked) [Example 262, tert-Butyl 3-[3-(2,7-dioxoazepan-3-yl)-2-oxo-1,3-benzothiazol-6-yl]propanoate]

Kd [µM]	Structure (SMILES)
≥ 100	Cn1c(=O)n(C2CCCC(=O)NC2=O)c(=O)c2ccc(CCC(=O)OC(C)(C)C)cc21 (centres unmarked) [Example 265, tert-Butyl 3-[3-(2,7-dioxoazepan-3-yl)-1-methyl-2,4-dioxoquinazolin-7-yl]propanoate]
≥ 100	Cn1c(-c2ccc(CCC(=O)OC(C)(C)C)cc2)nn(C2CCCC(=O)NC2=O)c1=O (centres unmarked) [Example 266, tert-Butyl 3-[4-[1-(2,7-dioxoazepan-3-yl)-4-methyl-5-oxo-1,2,4-triazol-3-yl]phenyl]propanoate]
≥ 100	O=C1CCCC(Oc2ccc(Br)cc2)C(=O)N1 (centres unmarked) [Example 267, 3-(4-Bromophenoxy) azepane-2,7-dione]
≥ 100	CC(C)(C)OC(=O)c1ccc(OC2CCCC(=O)NC2=O)nc1 (centres unmarked) [Example 268, tert-Butyl 6-(2,7-dioxoazepan-3-yl) oxypyridine-3-carboxylate]
≥ 100	O=C1CCCC2(CCN(C(=O)C3CCN(c4ncccn4)CC3)C2)C(=O)N1 (centres unmarked) [Example 269, 2-(1-Pyrimidin-2-ylpiperidine-4-carbonyl)-2,7-diazaspiro [4.6]undecane-6,8-dione]
≥ 100	CN(C1CCCC(=O)NC1=O)S(=O)(=O)c1ccc(CCCCCCNC(=O)OC(C)(C)C)cc1 (centres unmarked) [Example 271, tert-Butyl N-[6-[4-[(2,7-dioxoazepan-3-yl)-methylsulfamoyl]phenyl]hexyl]carbamate]
≥ 100	CN1CCN(c2cnn(C3CCCC(=O)NC3=O)c(=O)c2)CC1 (centres unmarked) [Example 272, 3-[4-(4-Methylpiperazin-1-yl)-6-oxopyridazin-1-yl]azepane-2,7-dione]
≥ 100	CCOC(=O)c1ccc2nc(N3CC4(CC(=O)N(C5CCCC(=O)NC5=O)C4=O)C3)sc2c1 (centres unmarked) [Example 273-2, Ethyl 2-[6-(2,7-dioxoazepan-3-yl)-5,7-dioxo-2,6-diazaspiro [3.4]octan-2-yl]-1,3-benzothiazole-6-carboxylate]
≥ 100	O=C1CCCC(N2C(=O)OCc3cc([N+](=O)[O-])ccc32)C(=O)N1 (centres unmarked) [Example 274, 3-(6-Nitro-2-oxo-4H-3,1-benzoxazin-1-yl) azepane-2,7-dione]
≥ 100	CC(C)(C)OC(=O)Cn1c(=O)c(=O)n(C2CCCC(=O)NC2=O)c2ccccc21 (centres unmarked) [Example 275, tert-Butyl 2-[4-(2,7-dioxoazepan-3-yl)-2,3-dioxoquinoxalin-1-yl]acetate]
≥ 100	CC(C)(C)OC(=O)N1CCC(c2ccc(OC3CCCC(=O)NC3=O)cc2)CC1 (centres unmarked) [Example 276]
< 50	O=C1CCC(N2C(=O)CC3(CN(C4CCN(CC(=O)OCc5ccccc5)CC4)C3)C2=O)C(=O)N1 (centres unmarked) [Example 277, Benzyl 2-[4-[6-(2,6-dioxopiperidin-3-yl)-5,7-dioxo-2,6-diazaspiro [3.4]octan-2-yl]piperidin-1-yl]acetate]
≥ 100	CC(C)(C)OC(=O)NCCc1ccc(S(=O)(=O)N2CC3(CC(=O)N(C4CCC(=O)NC4=O)C3=O)C2)cc1 (centres unmarked) [Example 278, tert-Butyl N-[2-[4-[[6-(2,6-dioxopiperidin-3-yl)-5,7-dioxo-2,6-diazaspiro [3.4]octan-2-yl]sulfonyl]phenyl]ethyl]carbamate]
≥ 100	Cn1nc(N2CC=CC(=O)NC2=O)c2ccc(Br)cc21 [Example 281, 3-(6-Bromo-1-methylindazol-3-yl)-4H-1,3-diazepine-2,7-dione]
50 to 100	CC1(N2CC=CC(=O)NC2=O)C(=O)N(CC(=O)OCc2ccccc2)c2ccccc21 (centres unmarked) [Example 283, Benzyl 2-[3-(2,7-dioxo-4H-1,3-diazepin-3-yl)-3-methyl-2-oxoindol-1-yl]acetate]
< 50	Cn1nc(N2C=CCC(=O)NC2=O)c2ccc(/C=C/C(=O)OC(C)(C)C)cc21 [Example 287, tert-Butyl (E)-3-[3-(2,4-dioxo-5H-1,3-diazepin-1-yl)-1-methylindazol-6-yl]prop-2-enoate]
< 50	CN1C(=O)C(C)(N2C=CCC(=O)NC2=O)c2ccc(/C=C/C(=O)OC(C)(C)C)cc21 (centres unmarked) [Example 288, tert-Butyl (E)-3-[3-(2,4-dioxo-5H-1,3-diazepin-1-yl)-1,3-dimethyl-2-oxoindolin-6-yl]prop-2-enoate]
